Measurements taken from patent US5563037A, “Homogeneous method for assay of double-stranded nucleic acids using fluorescent dyes and kit useful therein” (Johnson & Johnson Clinical Diagnostics, Inc., priority 1995, dated 1996).

Tests used:
[1] = system: HIV-I DNA; test: Example 2: ethidium bromide stained electrophoretic gels of amplification products; assay type: biochemical; conditions: dye added prior to amplification
Method: The method of this invention was compared to an amplification and detection method outside the scope of this invention, which was carried out using YOYO-1 (1 μmolar final concentration), a tetravalent fluorescent dye, in the buffered solution described above. This dye has the following structure: [drawing 4] The PCR reaction mixture of Example 1 (except the DNA polymerase) was made to a volume of 5472 μl. The resulting mixture was aliquoted into tubes A, B and C (1824 μl each) representing Samples A, B and C, respectively. The sample in Tube A was diluted with buffer (220 μl) and subjected to amplification without any fluorescence dye present. The dye was added at the end of amplification for quantitative detection of the resulting products. In addition to the PCR reagents, the sample in Tube B contained YOYO-1 fluorescent dye (0.1 μmolar) which had been added prior to amplification (220 μl of a 10 μmolar solution). The sample in Tube C also contained YO-[…] fluorescent dye (0.1 μmolar) which had been added prior to amplification (220 μl of a 10 μmolar solution). The DNA polymerase (88 μl) and target HIV-I DNA target nucleic acid (220 μl) were then added to each tube, and the contents of the each of the three tubes were used to fill the PCR reagent compartment of eight pouches. Amplification was carried out using the same procedures as in Example 1. […] follows: The results of amplification were detected in three ways: (1) color dye scores visually evaluated as 0 (no signal) to 10 (highest signal density), (2) ethidium bromide stained electrophoretic gels, and (3) fluorescence measured on a commercially available Perkin Elmer fluorimeter. Electrophoresis was carried out using commercially available NuSieve 1.5%/Seakem Agarose 1% gels (modified to 2.5% agarose) and ethidium bromide stain. The samples were applied to the gels in conventional TBE buffer (4 μl/100 μl). Three replicate assays of each sample (A, B and C) were carried out using each detection means. The average result for each detection means was as follows: […]

[2] = system: HIV-I DNA; test: Example 1: PCR amplification of HIV-I DNA with YO-PRO-1 dye, fluorescence vs. PCR cycles; assay type: biochemical
From the text: The primers used in Examples 1 and 2 had the following sequences which are complementary to the gag region of HIV-I DNA:
HIV-I target DNA was obtained from HUT78/HIV AAV cells obtained from Bernie Poiesz of Syracuse University. Each cell contained about 1 HIV-I copy.
The final PCR reaction mixture contained the primers SEQ ID NO:1 and SEQ ID NO:2 (0.4 μmolar of each), magnesium chloride (10 mmolar), each of dATP, dCTP, dGTP and dTTP (1.5 mmolar of each), tris(hydroxymethyl)aminomethane buffer (10 mmolar, pH 8), ethylenediaminetetraacetic acid (0.1 mmolar), potassium chloride (50 mmolar), DNA polymerase (160 units/ml) and Kodak Ultrapure Human DNA (0.22 μg/μl), glycerol (7.5%). […]
All reagents, except the DNA polymerase, were mixed with the buffer solution noted above. […] The fluorescence of the contents of that tube was then measured following dilution (100 μl of reaction mixture with 3900 μl of dye solution at a concentration of […], giving a final fluid volume of 4 ml in the fluorimeter cuvette) on a commercially available Perkin-Elmer LS-5B spectrofluorimeter (excitation at 491 nm, emission at 509 nm).
The results of these measurements are shown in the FIGURE which is a plot of fluorescence intensity vs. the number of PCR cycles. […]

Question: How did the “effect of dye on amplification (gel)” value [1] turn out when `C[n+]1c(C=C2C=CN(CCC[N+](C)(C)C)c3ccccc32)oc2ccccc21` [Compound E] was run?
Answer: The value was “allowed amplification to proceed”.

Question: What about the “Positive/negative Gel Bands” value ([1]; 40 cycles) of the same compound?
Answer: Its value is 5 Positives out of 5 bands.

Question: And the “fluorescence after PCR” value ([2]; after 45 PCR cycles, excitation 491 nm, emission 509 nm)?
Answer: Its value is “about 20 fluorescent units”.

Question: And the “effect of dye on PCR” value ([2]; dye present throughout entire amplification, 1 μmolar)?
Answer: The value was “did not adversely affect PCR”.
